Key:
Test in all cases: KINOMEscan competition binding
Settings in all cases: compound 10.0 µM
CSNK2A2 (human) = CSNK2A2 (human) (UniProt P19784)
MAPK11 (human) = MAPK11 (human) (UniProt Q15759)
[1] = biological target: TYK2 JH1 catalytic (human) (UniProt P29597)
[2] = test system: ABL1 (human), P00519 [F317L]
MAP3K15 (human) = MAP3K15 (human) (UniProt Q6ZN16)
[3] = test system: PIK3CA (human), P42336 [Q546K]
[4] = test system: ABL1 (human), P00519 [E255K]
CSNK1D (human) = CSNK1D (human) (UniProt P48730)
TSSK1B (human) = TSSK1B (human) (UniProt Q9BXA7)
BMPR1A (human) = BMPR1A (human) (UniProt P36894)
IRAK3 (human) = IRAK3 (human) (UniProt Q9Y616)
LTK (human) = LTK (human) (UniProt P29376)
[5] = test system: ABL1 (human), P00519 [H396P]
MYLK (human) = MYLK (human) (UniProt Q15746)
MAPKAPK2 (human) = MAPKAPK2 (human) (UniProt P49137)
MAPK7 (human) = MAPK7 (human) (UniProt Q13164)
PIM3 (human) = PIM3 (human) (UniProt Q86V86)
EPHA6 (human) = EPHA6 (human) (UniProt Q9UF33)
ROS1 (human) = ROS1 (human) (UniProt P08922)
NEK5 (human) = NEK5 (human) (UniProt Q6P3R8)
RAF1 (human) = RAF1 (human) (UniProt P04049)
DCLK3 (human) = DCLK3 (human) (UniProt Q9C098)
BLK (human) = BLK (human) (UniProt P51451)
FRK (human) = FRK (human) (UniProt P42685)
ALK (human) = ALK (human) (UniProt Q9UM73)
CSNK1G3 (human) = CSNK1G3 (human) (UniProt Q9Y6M4)
CAMK1D (human) = CAMK1D (human) (UniProt Q8IU85)
ACVRL1 (human) = ACVRL1 (human) (UniProt P37023)
CSNK1G2 (human) = CSNK1G2 (human) (UniProt P78368)
PKN1 (human) = PKN1 (human) (UniProt Q16512)
PRKD1 (human) = PRKD1 (human) (UniProt Q15139)
AURKA (human) = AURKA (human) (UniProt O14965)
INSRR (human) = INSRR (human) (UniProt P14616)
PLK2 (human) = PLK2 (human) (UniProt Q9NYY3)
MAPKAPK5 (human) = MAPKAPK5 (human) (UniProt Q8IW41)
[6] = test system: MET (human), P08581 [M1250T]
AURKC (human) = AURKC (human) (UniProt Q9UQB9)
MAPK12 (human) = MAPK12 (human) (UniProt P53778)
PRKACB (human) = PRKACB (human) (UniProt P22694)
PHKG1 (human) = PHKG1 (human) (UniProt Q16816)
FGR (human) = FGR (human) (UniProt P09769)

Chain of PRKD1 (human) (Q15139 whole entry, looked up): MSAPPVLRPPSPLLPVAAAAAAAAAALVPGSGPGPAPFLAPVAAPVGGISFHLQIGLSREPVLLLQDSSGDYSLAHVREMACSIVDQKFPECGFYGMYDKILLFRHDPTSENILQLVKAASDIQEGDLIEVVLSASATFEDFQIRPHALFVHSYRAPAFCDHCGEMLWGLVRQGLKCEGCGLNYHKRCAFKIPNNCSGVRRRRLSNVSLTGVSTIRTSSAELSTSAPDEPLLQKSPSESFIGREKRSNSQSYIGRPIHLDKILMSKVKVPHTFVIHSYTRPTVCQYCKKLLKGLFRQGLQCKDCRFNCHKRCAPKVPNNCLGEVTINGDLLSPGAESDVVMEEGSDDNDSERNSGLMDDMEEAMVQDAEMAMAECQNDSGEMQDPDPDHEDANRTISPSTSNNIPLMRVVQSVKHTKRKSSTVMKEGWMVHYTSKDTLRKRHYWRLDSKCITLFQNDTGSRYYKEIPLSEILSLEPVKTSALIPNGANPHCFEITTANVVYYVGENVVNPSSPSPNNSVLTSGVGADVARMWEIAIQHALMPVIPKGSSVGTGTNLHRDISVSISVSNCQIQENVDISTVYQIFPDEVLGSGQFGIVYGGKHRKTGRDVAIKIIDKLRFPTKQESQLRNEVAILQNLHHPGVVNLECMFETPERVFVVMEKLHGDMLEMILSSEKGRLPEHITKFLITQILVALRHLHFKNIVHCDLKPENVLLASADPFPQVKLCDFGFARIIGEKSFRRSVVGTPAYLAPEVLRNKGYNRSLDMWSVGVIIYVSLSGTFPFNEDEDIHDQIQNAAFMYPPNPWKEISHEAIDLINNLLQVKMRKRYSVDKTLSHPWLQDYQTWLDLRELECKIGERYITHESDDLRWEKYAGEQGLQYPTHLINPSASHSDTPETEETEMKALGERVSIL
Chain of AURKC (human) (Q9UQB9 whole entry, looked up): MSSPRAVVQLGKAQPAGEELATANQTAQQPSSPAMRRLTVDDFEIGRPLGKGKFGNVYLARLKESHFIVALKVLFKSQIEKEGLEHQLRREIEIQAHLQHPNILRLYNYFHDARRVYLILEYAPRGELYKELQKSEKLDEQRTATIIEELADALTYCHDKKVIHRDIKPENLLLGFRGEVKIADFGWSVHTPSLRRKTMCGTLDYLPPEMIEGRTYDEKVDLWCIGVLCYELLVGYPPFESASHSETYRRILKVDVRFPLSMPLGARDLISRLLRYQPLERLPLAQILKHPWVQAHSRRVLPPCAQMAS
Chain of AURKA (human) (O14965 whole entry, looked up): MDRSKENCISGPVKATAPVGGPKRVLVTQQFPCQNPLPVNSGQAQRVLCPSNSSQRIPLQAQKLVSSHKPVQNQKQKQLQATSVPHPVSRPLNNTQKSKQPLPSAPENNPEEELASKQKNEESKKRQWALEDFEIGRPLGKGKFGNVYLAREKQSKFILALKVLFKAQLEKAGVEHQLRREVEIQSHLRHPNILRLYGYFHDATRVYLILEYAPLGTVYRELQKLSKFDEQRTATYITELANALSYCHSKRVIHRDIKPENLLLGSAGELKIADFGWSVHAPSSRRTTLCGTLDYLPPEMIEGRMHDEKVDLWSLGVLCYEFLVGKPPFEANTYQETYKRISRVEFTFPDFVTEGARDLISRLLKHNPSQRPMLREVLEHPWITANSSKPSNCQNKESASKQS
Chain of CSNK2A2 (human) (P19784 whole entry, looked up): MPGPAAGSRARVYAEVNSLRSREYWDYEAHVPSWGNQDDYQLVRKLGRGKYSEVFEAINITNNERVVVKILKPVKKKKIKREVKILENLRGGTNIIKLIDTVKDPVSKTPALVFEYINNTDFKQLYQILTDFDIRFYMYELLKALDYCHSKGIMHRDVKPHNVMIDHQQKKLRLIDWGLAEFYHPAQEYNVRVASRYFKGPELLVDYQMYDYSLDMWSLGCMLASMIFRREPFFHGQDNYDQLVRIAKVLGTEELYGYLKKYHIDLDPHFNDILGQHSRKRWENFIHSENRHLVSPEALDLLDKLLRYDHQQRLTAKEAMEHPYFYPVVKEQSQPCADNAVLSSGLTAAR
Chain of MAPK11 (human) (Q15759 whole entry, looked up): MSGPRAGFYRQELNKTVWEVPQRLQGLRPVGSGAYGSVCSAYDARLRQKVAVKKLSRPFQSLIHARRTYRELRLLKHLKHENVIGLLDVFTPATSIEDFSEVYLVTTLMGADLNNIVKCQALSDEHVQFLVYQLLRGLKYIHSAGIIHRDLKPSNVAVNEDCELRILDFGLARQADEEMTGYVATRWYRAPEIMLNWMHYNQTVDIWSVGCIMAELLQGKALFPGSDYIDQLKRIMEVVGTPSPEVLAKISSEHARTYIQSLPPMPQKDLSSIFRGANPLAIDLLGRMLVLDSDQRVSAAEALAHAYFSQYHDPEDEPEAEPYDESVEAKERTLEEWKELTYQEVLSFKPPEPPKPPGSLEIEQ
Chain of ROS1 (human) (P08922 whole entry, looked up): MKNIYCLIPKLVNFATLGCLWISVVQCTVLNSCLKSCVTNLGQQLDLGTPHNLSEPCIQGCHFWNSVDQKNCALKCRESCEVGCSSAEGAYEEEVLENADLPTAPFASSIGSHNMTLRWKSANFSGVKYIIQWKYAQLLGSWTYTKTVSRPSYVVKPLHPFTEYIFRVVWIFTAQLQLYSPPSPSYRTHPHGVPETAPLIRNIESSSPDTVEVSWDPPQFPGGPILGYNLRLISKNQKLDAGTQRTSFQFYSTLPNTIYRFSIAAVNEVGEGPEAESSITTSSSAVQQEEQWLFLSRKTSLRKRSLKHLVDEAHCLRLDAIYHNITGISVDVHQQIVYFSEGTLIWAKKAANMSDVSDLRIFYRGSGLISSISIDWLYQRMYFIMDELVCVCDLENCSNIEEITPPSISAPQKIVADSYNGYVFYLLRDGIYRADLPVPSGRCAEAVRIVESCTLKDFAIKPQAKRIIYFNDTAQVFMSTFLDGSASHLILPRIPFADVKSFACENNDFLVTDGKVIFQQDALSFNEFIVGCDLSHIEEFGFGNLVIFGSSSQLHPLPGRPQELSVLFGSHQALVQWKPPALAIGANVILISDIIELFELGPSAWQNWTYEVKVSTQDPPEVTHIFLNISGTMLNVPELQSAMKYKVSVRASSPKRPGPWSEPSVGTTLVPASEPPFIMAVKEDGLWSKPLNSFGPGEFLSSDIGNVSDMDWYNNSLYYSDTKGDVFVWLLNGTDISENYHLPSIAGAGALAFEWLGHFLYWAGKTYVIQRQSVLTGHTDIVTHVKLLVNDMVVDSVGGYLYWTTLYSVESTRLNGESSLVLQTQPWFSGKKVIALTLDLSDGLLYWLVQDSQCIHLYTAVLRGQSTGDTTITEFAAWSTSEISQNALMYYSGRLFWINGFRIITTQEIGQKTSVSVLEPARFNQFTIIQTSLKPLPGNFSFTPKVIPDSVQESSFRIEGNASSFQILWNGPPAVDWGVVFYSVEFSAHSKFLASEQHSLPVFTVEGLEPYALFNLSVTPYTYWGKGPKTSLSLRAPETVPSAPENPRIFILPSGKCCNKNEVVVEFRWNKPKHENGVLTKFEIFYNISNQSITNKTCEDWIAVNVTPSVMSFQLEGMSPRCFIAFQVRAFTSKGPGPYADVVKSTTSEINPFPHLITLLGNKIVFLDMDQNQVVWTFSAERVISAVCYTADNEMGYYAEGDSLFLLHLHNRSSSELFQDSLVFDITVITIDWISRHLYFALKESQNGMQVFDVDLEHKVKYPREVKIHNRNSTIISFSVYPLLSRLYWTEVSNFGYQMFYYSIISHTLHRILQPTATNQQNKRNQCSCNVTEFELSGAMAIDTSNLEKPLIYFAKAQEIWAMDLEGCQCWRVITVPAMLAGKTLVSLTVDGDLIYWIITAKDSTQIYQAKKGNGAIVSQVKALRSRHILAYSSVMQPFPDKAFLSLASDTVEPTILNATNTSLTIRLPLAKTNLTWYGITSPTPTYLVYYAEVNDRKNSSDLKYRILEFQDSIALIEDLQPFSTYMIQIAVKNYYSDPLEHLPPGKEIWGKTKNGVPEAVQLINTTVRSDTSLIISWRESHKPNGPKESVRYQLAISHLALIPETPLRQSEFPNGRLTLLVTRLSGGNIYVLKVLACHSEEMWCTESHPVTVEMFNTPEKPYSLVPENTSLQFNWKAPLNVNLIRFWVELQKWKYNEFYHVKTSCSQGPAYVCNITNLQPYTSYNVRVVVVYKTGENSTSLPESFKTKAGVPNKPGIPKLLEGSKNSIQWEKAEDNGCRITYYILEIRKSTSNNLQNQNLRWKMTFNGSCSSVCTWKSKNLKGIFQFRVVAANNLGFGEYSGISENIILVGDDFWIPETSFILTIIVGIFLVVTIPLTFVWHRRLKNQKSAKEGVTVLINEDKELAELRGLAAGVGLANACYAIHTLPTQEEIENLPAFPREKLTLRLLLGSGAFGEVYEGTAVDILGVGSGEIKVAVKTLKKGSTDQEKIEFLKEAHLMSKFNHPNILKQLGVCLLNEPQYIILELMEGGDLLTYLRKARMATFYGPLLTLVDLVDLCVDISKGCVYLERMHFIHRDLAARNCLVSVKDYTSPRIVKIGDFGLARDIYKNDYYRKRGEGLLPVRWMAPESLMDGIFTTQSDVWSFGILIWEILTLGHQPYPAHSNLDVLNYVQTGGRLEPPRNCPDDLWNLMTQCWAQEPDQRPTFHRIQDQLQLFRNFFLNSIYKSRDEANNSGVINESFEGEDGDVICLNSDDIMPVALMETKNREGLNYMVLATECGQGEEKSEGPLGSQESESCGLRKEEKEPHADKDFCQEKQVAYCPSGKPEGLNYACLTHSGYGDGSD
Chain of MAPK12 (human) (P53778 whole entry, looked up): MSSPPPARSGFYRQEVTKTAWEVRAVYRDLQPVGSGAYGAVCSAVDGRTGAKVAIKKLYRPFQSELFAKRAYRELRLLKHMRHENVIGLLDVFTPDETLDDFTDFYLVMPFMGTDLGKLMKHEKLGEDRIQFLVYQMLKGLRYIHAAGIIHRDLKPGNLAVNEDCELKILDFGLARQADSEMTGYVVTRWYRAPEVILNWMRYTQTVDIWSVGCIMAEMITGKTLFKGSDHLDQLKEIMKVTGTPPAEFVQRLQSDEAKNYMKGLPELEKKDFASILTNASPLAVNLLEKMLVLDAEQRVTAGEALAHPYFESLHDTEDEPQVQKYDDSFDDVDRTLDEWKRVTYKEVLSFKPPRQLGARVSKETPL

SMILES: Cc1cnc(-c2cnc(NCCNc3ccc(C#N)cn3)nc2-c2ccc(Cl)cc2Cl)[nH]1
- kinase still bound, per cent of control (CSNK2A2 (human)): 100%
- kinase still bound, per cent of control (MAPK11 (human)): 100%
- kinase still bound, per cent of control [1]: 99%
- kinase still bound, per cent of control [2]: 100%
- kinase still bound, per cent of control (MAP3K15 (human)): 100%
- kinase still bound, per cent of control [3]: 100%
- kinase still bound, per cent of control [4]: 100%
- kinase still bound, per cent of control (CSNK1D (human)): 81%
- kinase still bound, per cent of control (TSSK1B (human)): 94%
- kinase still bound, per cent of control (BMPR1A (human)): 100%
- kinase still bound, per cent of control (IRAK3 (human)): 100%
- kinase still bound, per cent of control (LTK (human)): 100%
- kinase still bound, per cent of control [5]: 100%
- kinase still bound, per cent of control (MYLK (human)): 59%
- kinase still bound, per cent of control (MAPKAPK2 (human)): 100%
- kinase still bound, per cent of control (MAPK7 (human)): 100%
- kinase still bound, per cent of control (PIM3 (human)): 95%
- kinase still bound, per cent of control (EPHA6 (human)): 100%
- kinase still bound, per cent of control (ROS1 (human)): 100%
- kinase still bound, per cent of control (NEK5 (human)): 93%
- kinase still bound, per cent of control (RAF1 (human)): 100%
- kinase still bound, per cent of control (DCLK3 (human)): 34%
- kinase still bound, per cent of control (BLK (human)): 100%
- kinase still bound, per cent of control (FRK (human)): 100%
- kinase still bound, per cent of control (ALK (human)): 100%
- kinase still bound, per cent of control (CSNK1G3 (human)): 56%
- kinase still bound, per cent of control (CAMK1D (human)): 100%
- kinase still bound, per cent of control (ACVRL1 (human)): 100%
- kinase still bound, per cent of control (CSNK1G2 (human)): 59%
- kinase still bound, per cent of control (PKN1 (human)): 100%
- kinase still bound, per cent of control (PRKD1 (human)): 100%
- kinase still bound, per cent of control (AURKA (human)): 100%
- kinase still bound, per cent of control (INSRR (human)): 100%
- kinase still bound, per cent of control (PLK2 (human)): 79%
- kinase still bound, per cent of control (MAPKAPK5 (human)): 96%
- kinase still bound, per cent of control [6]: 92%
- kinase still bound, per cent of control (AURKC (human)): 92%
- kinase still bound, per cent of control (MAPK12 (human)): 100%
- kinase still bound, per cent of control (PRKACB (human)): 100%
- kinase still bound, per cent of control (PHKG1 (human)): 100%
- kinase still bound, per cent of control (FGR (human)): 100%

SMILES: Cn1cc(C2=C(c3ccc(Cl)cc3Cl)C(=O)NC2=O)c2ccccc21
- kinase still bound, per cent of control (CSNK2A2 (human)): 99%
- kinase still bound, per cent of control (MAPK11 (human)): 98%
- kinase still bound, per cent of control [1]: 100%
- kinase still bound, per cent of control [2]: 100%
- kinase still bound, per cent of control (MAP3K15 (human)): 100%
- kinase still bound, per cent of control [3]: 90%
- kinase still bound, per cent of control [4]: 100%
- kinase still bound, per cent of control (CSNK1D (human)): 94%
- kinase still bound, per cent of control (TSSK1B (human)): 100%
- kinase still bound, per cent of control (BMPR1A (human)): 100%
- kinase still bound, per cent of control (IRAK3 (human)): 100%
- kinase still bound, per cent of control (LTK (human)): 100%
- kinase still bound, per cent of control [5]: 90%
- kinase still bound, per cent of control (MYLK (human)): 64%
- kinase still bound, per cent of control (MAPKAPK2 (human)): 100%
- kinase still bound, per cent of control (MAPK7 (human)): 79%
- kinase still bound, per cent of control (PIM3 (human)): 18%
- kinase still bound, per cent of control (EPHA6 (human)): 100%
- kinase still bound, per cent of control (ROS1 (human)): 100%
- kinase still bound, per cent of control (NEK5 (human)): 99%
- kinase still bound, per cent of control (RAF1 (human)): 91%
- kinase still bound, per cent of control (DCLK3 (human)): 66%
- kinase still bound, per cent of control (BLK (human)): 100%
- kinase still bound, per cent of control (FRK (human)): 100%
- kinase still bound, per cent of control (ALK (human)): 100%
- kinase still bound, per cent of control (CSNK1G3 (human)): 69%
- kinase still bound, per cent of control (CAMK1D (human)): 76%
- kinase still bound, per cent of control (ACVRL1 (human)): 100%
- kinase still bound, per cent of control (CSNK1G2 (human)): 100%
- kinase still bound, per cent of control (PKN1 (human)): 73%
- kinase still bound, per cent of control (PRKD1 (human)): 100%
- kinase still bound, per cent of control (AURKA (human)): 100%
- kinase still bound, per cent of control (INSRR (human)): 72%
- kinase still bound, per cent of control (PLK2 (human)): 100%
- kinase still bound, per cent of control (MAPKAPK5 (human)): 100%
- kinase still bound, per cent of control [6]: 73%
- kinase still bound, per cent of control (AURKC (human)): 96%
- kinase still bound, per cent of control (MAPK12 (human)): 100%
- kinase still bound, per cent of control (PRKACB (human)): 100%
- kinase still bound, per cent of control (PHKG1 (human)): 100%
- kinase still bound, per cent of control (FGR (human)): 100%
